Read-outs that look alike come from different tables or passages of the source.
Assays:
T-tropic HIV = conditions: patients dual tropic or with only T-tropic virus; cited from earlier work
CXCR4 receptor = biological target: T1, CXCR4 receptor (Homo sapiens, UniProt P61073); assay: Functional FLIPR assay (block of SDF-1 alpha induced [Ca2+]i change); assay type: cell-based; conditions: HEK-293 cells, human CXCR4 BacMam and Gqi5 BacMam, read-out: Functional assay (pIC50) (converted)
T1 construct: expressed in transfected cells; host or cells: HEK-293 cells (stably expressing human macrophage scavenger receptor) transduced with human CXCR4 BacMam and Gqi5 BacMam
T1 sequence (P61073 whole entry): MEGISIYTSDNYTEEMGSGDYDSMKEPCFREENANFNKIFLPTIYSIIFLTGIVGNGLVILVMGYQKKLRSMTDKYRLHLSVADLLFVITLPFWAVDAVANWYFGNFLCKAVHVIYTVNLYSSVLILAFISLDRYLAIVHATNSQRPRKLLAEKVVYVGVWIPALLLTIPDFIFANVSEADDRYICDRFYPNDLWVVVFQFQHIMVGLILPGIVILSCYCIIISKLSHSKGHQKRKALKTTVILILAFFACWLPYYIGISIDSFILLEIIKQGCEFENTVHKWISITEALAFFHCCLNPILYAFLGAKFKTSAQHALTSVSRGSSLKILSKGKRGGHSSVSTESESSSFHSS
Procedure: Human embryonic kidney (HEK-293) cells were maintained and harvested as described above. Cells were plated in 96-well, black clear bottom, poly-lysine coated plates at a concentration of 40,000 cells per well in a final volume of 100 ul containing human CXCR4BacMam (MOI=25) and Gqi5 BacMam (MOI=12.5). The cells were incubated at 37° C., 5% CO2, 95% humidity for 24 h to allow for protein expression.
After the required incubation time the cells were washed once with 50 ul of fresh serum-free DMEM/F12 media containing probenicid. 50 ul of dye solution was then added to the cells (Calcium Plus Assay Kit Dye; Molecular Devices) was dissolved in 200 ml of the above probenicid/BSA containing media and incubated for 1 h. Cell plates were transferred to a Fluorometric Imaging Plate Reader (FLIPR). Upon addition the effect of the compounds on the change in [Ca^2+]i was examined to determine if the compounds were agonists or antagonists (ability to block SDF-1 alpha activity) at the CXCR4 receptor. IC50 values are determined and pKb values are calculated using the Leff and Dougall equation: KB═IC50/((2+([agonist]/EC50̂b)̂1/b−1) Where IC50 is that defined by the antagonist concentration-response curve [agonist)] is the EC80 concentration of agonist used EC50 is that defined by the agonist concentration-response curve b is the slope of the agonist concentration-response curve.

[1] = Compound cytotoxicity in HOS cells in the absence of virus (CellTiter-Glo); assay type: cell-based; conditions: human, no virus, read-out: Cytotox (pIC50) (converted)
Procedure: Compounds were profiled against two HIV-1 viruses, the M-tropic (CCR5 utilizing) Ba-L strain and the T-tropic (CXCR4 utilizing) IIIB strain. Both viruses were propagated in human peripheral blood lymphocytes. Compounds were tested for there ability to block infection of the HOS cell line (expressing hCXCR4/hCCR5/hCD4/pHIV-LTR-luciferase) by either HIV-1 Ba-L or HIV-1 IIIB. Compound cytotoxicity was also examined in the absence of virus addition.
HOS cells (expressing hCXCR4/hCCR5/hCD4/pHIV-LTR-luciferase) were harvested and diluted in Dulbeccos modified Eagles media supplemented with 2% FCS and non-essential amino acid to a concentration of 60,000 cells/ml. The cells were plated into 96-well plates (100 ul per well) and the plates were placed in a tissue culture incubator (37° C.; 5% CO2/95% air) for a period of 24 h.
Subsequently, 50 ul of the desired drug solution (4 times the final concentration) was added to each well and the plates were returned to the tissue culture incubator (37° C.; 5% CO2/95% air) for 1 h. Following this incubation 50 ul of diluted virus was added to each well (approximately 2 million RLU per well of virus). The plates were returned to the tissue culture incubator (37° C.; 5% CO2/95% air) and were incubated for a further 96 h.
Following this incubation the endpoint for the virally infected cultures was quantified following addition of Steady-Glo Luciferase assay system reagent (Promega, Madison, Wis.). Cell viability or non-infected cultures was measured using a CellTiter-Glo luminescent cell viability assay system (Promega, Madison, Wis.). All luminescent readouts are performed on a Topcount luminescence detector (Packard, Meridien, Conn.).

HIV-1 IIIB = assay: HOS HIV-1 infectivity assay; assay type: cell-based
Outline: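 HOS hCXCR4/hCCR5/hCD4/pHIV-LTR-luc cells, DMEM 2% FCS, 24 h preculture; cpd 1 h pre-virus; HIV-1 (PBL-grown) ~2 million RLU/well; 96 h, 37 °C. Readout: Steady-Glo luciferase (infected), CellTiter-Glo (no virus).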

[2] = system: HIV-1 gp160 (HXB2 strain) mediated cell/cell fusion; assay: Cell/cell fusion assay (HOS hCXCR4/hCCR5/hCD4/pHIV-LTR-luciferase cells with HEK-293 cells expressing HIV-1 tat, rev, gp160), luciferase readout; assay type: cell-based; conditions: Homo sapiens, HEK293, 24 h, read-out: Fusion assay (pIC50) (converted)
Excerpt: The complete coding sequences of HIV-1 tat (GenBank Accession No. X07861) and rev (GenBank Accession No. M34378) were cloned into pcDNA3.1 expression vectors containing G418 and hygromycin resistance genes, respectively. The complete coding sequence of the HIV-1 (HXB2 strain) gp160 envelope gene (nucleotide bases 6225-8795 of GenBank Accession No. K03455) was cloned into plasmid pCRII-TOPO. The three HIV genes were additionally inserted into the baculovirus shuttle vector, pFastBacMam1, under the transcriptional control of the CMV promoter. A construction of the pHIV-1 LTR containing mutated NFkB sequences linked to the luciferase reporter gene was prepared by digesting pcDNA3.1, containing the G418 resistance gene, with Nru I and Bam HI to remove the CMV promoter. LTR-luc was then cloned into the Nru I/Bam HI sites of the plasmid vector. Plasmid preparations were performed after the plasmids were amplified in Escherichia coli strain DH5-alpha. The fidelity of the inserted sequences was confirmed by double-strand nucleotide sequencing using an ABI Prism Model 377 automated sequencer.
Recombinant BacMam baculoviruses were constructed from pFastBacMam shuttle plasmids by using the bacterial cell-based Bac-to-Bac system. Viruses were propagated in Sf9 (Spodoptera frugiperda) cells cultured in Hink's TNM-FH Insect media supplemented with 10% (v/v) fetal bovine serum and 0.1% (v/v) pluronic F-68 according to established protocols.
Human osteosarcoma (HOS) cells that naturally express human CXCR4 were transfected with human CCR5, human CD4 and the pHIV-LTR-luciferase plasmid using FuGENE 6 transfection reagent. Single cells were isolated and grown under selection condition in order to generate a stable HOS (hCXCR4/hCCR5/hCD4/pHIV-LTR-luciferase) clonal cell line. The cells were maintained in Dulbeccos modified Eagles media supplemented with 10% fetal calf serum (FCS), G418 (400 ug/ml), puromycin (1 ug/ml), mycophenolic acid (40 ug/ml), xanthine (250 ug/ml) and hypoxanthine (13.5 ug/ml) to maintain a selection pressure for cells expressing the LTR-luciferase, hCCR5 and hCD4, respectively. Human embryonic kidney (HEK-293) cells stably transfected to express the human macrophage scavenging receptor (Class A, type 1; GenBank Accession No. D90187), were maintained in DMEM/F-12 media (1:1) supplemented with 10% FCS and 1.5 ug/ml puromycin. The expression of this receptor by the HEK-293 cells enhances their ability to stick to tissue culture treated plasticware.
HEK-293 cells were harvested using enzyme-free cell dissociation buffer. The cells were resuspended in DMEM/F-12 media supplemented with 10% FCS and 1.5 ug/ml and counted. Tranductions were performed by direct addition of BacMam baculovirus containing insect cell media to cells. The cells were simultaneously transduced with BacMam baculovirus expressing HIV-1 tat, HIV-1 rev and HIV-1 gp160 (from the HXB2 HIV strain). Routinely an MOI of 10 of each virus was added to the media containing the cells. 2 mM butyric acid was also added to the cells at this stage to increase protein expression in transduced cells. The cells were subsequently mixed and seeded into a flask at 30 million cells per T225. The cells were incubated at 37° C., 5% CO2, 95% humidity for 24 h to allow for protein expression.
HEK and HOS cells were harvested in DMEM/F-12 media containing 2% FCS and DMEM media containing 2% FCS, respectively, with no selection agents added. Compounds were plated as 1 ul spots in 100% DMSO on a 96-well CulturPlate plates. HOS cells (50 ul) were added first to the wells, followed immediately by the HEK cells (50 ul). The final concentration of each cell type was 20,000 cells per well. Following these additions, the cells were returned to a tissue culture incubator (37° C.; 5% CO2/95% air) for an additional 24 h.
Following the 24 h incubation, total cellular luciferase activity was measured using the LucLite Plus assay kit (Packard, Meridien, Conn.). […]

[3] = Human immunodeficiency virus 1, IIIB, as determined by the infectivity assay, strain not stated in Table 2, read-out: Activity Level
[4] = Human immunodeficiency virus 1, T-tropic (CXCR4 utilizing) IIIB strain, HOS cells, 96 h, read-out: HOS (3B)

Structure (SMILES)	T-tropic HIV viral load (T-tropic HIV)	IC50 (CXCR4 receptor) [nM]	IC50 at 96 h [1] [nM]	IC50 (HIV-1 IIIB; [3]) [µM]	IC50 (HIV-1 IIIB; [4]) [µM]	IC50 [2] [nM]	IC50 (HIV-1 IIIB; Human immunodeficiency virus 1, IIIB, HOS, 96 h, read-out: HOS (3B) (uM)) [µM]	IC50 (HIV-1 IIIB; Human immunodeficiency virus 1, IIIB, read-out: Activity Level) [µM]
c1cc(CN2CCCNCCNCCCNCC2)ccc1CN1CCCNCCNCCCNCC1 [AMD-3100]	significantly reduce T-tropic HIV viral load							
CN1CC(Cn2c(CN(C)C3CCCc4cccnc43)nc3ccccc32)C1 (centres unmarked) [Example 10e, N-Methyl-N-({1-[(1-methyl-3-azetidinyl)methyl]-1H-benzimidazol-2-yl}methyl)-5,6,7,8-tetrahydro-8-quinolinamine]		117	> 100000	< 0.1	0.066	91.2		
CN(Cc1nc2ccccc2n1Cc1ccc(CN)cc1)C1CCCc2cccnc21 (centres unmarked) [Example 14, N-[(1-{[4-(Aminomethyl)phenyl]methyl}-1H-benzimidazol-2-yl)methyl]-N-methyl-5,6,7,8-tetrahydro-8-quinolinamine]		282	> 100000	0.5 to 10	0.985	708		
CN1CCC(n2c(CN(C)C3CCCc4cccnc43)nc3ccccc32)CC1 (centres unmarked) [Example 11i, N-Methyl-N-{[1-(1-methyl-4-piperidinyl)-1H-benzimidazol-2-yl]methyl}-5,6,7,8-tetrahydro-8-quinolinamine]		37.2	> 100000			79.4	0.082	< 0.1
NCCCn1c(CNC2CCCc3cccnc32)nc2ccccc21 (centres unmarked) [Example 19, N-{[1-(3-Aminopropyl)-1H-benzimidazol-2-yl]methyl}-5,6,7,8-tetrahydro-8-quinolinamine]		234	> 100000	< 0.1	0.09	513		
CN1CCC(Cn2c(CN(C)C3CCCc4cccnc43)nc3ccccc32)C1 (centres unmarked) [Example 8d, N-Methyl-N-({1-[(1-methyl-3-pyrrolidinyl)methyl]-1H-benzimidazol-2-yl}methyl)-5,6,7,8-tetrahydro-8-quinolinamine]		74.1	> 100000	< 0.1	0.057	74.1		
CN(Cc1nc2ccccc2n1CCCCN)C1CCCc2cccnc21 (centres unmarked) [Example 13, N-{[1-(4-Aminobutyl)-1H-benzimidazol-2-yl]methyl}-N-methyl-5,6,7,8-tetrahydro-8-quinolinamine]		302	> 100000	0.1 to 0.5	0.131	126		
NCCCn1c(CN(Cc2ccccc2)C2CCCc3cccnc32)nc2ccccc21 (centres unmarked) [Example 21, N-{[1-(3-Aminopropyl)-1H-benzimidazol-2-yl]methyl}-N-(phenylmethyl)-5,6,7,8-tetrahydro-8-quinolinamine]		288	> 100000	0.5 to 10	0.595	1320		
CN(Cc1nc2ccccc2n1Cc1cccnc1)C1CCCc2cccnc21 (centres unmarked) [Example 3, N-Methyl-N-{[1-(3-pyridinylmethyl)-1H-benzimidazol-2-yl]methyl}-5,6,7,8-tetrahydro-8-quinolinamine]		398	> 100000	0.5 to 10	0.574	1780		
CN1CCCC(Cn2c(CN(C)C3CCCc4cccnc43)nc3ccccc32)C1 (centres unmarked) [Example 7, N-Methyl-N-({1-[(1-methyl-3-piperidinyl)methyl]-1H-benzimidazol-2-yl}methyl)-5,6,7,8-tetrahydro-8-quinolinamine]		8.13	> 100000	< 0.1	0.019	20.9		
CN(Cc1nc2ccccc2n1Cc1ccc(CNCc2ccccn2)cc1)C1CCCc2cccnc21 (centres unmarked) [Example 12, N-Methyl-N-({1-[(4-{[(2-pyridinylmethyl)amino]methyl}phenyl)methyl]-1H-benzimidazol-2-yl}methyl)-5,6,7,8-tetrahydro-8-quinolinamine]		224	> 100000	0.1 to 0.5	0.376	575		
CN(Cc1nc2ccccc2n1CC1CCNCC1)C1CCCc2cccnc21 (centres unmarked) [Example 6, N-Methyl-N-{[1-(4-piperidinylmethyl)-1H-benzimidazol-2-yl]methyl}-5,6,7,8-tetrahydro-8-quinolinamine]		282	> 100000	< 0.1	0.09	240		

— patent US20080096861A1, “Chemical Compounds” (SMITHKLINE BEECHAM CORPORATION, priority 2004, published 2008)
